Experiment [1] has as its system human liver cancer cell line HepG2. The experiment is described as follows: MTT anti-proliferative assay, HepG2. The format is cell-based. The note with it: read-out: IC50 (μM) HepG2. The text has this: (§1) The anti-proliferative activities of 3a–k against human lung cancer cell line (A549), human hepatoma cell line (HepG2), and human breast cancer cell line (MCF-7) were examined. With lupeol and cisplatin as positive controls, the MTT assay was used to evaluate the anti-proliferative activity of all of the synthesized compounds in vitro.
(§2) The MTT (Beyotime, Shanghai, China) colorimetric method was used to test the antitumor activity of the synthetic products. The test compound and the control compound were prepared into the liquid with a concentration of 1, 5, 10, 20, and 40 μmol/L, respectively. The tested tumor cells (A549, HepG2, MCF-7) (Chinese Academy of Sciences, Shanghai, China) were inoculated into 96 well plates with a density of 2 × 10^4 cells/mL, and 90 μL PBS was injected into each well. The 96 well plates were cultured overnight in an incubator, and each well was injected with the same concentration of 10 μL of the test compound. After 48 h, 10 μL of MTT solution was injected into each well. After culture for 4 h, the plates were turned upside down and 100 μL DMSO (Kermel, Tianjin, China) was added. The optical density (OD) values of the compound and the control product were determined at 490 nm wavelength with enzyme-labeled apparatus.

Experiment [2] has as its system human lung cancer cell line A549. Briefly: MTT anti-proliferative assay, A549. The experiment is classed as cell-based. As to conditions: read-out: IC50 (μM) A549.
Description: as §1, §2
A general note: Tetrazolium assays rely on reduction of a dye to a coloured formazan, in cell work by metabolically active cells.

In experiment [3] the test system is human breast cancer cell line MCF-7. The experiment is described as follows: MTT anti-proliferative assay, MCF-7. The format is cell-based. The note with it: read-out: IC50 (μM) MCF-7.
Description: as §1, §2

Experiment [4] relates to A549, HepG2, MCF-7. Briefly: MTT anti-proliferative assay, stated for all three tumor cell lines together. The format is cell-based, human. The note with it: for anti-proliferative activity compared with lupeol: three tested cell lines; for IC50: Homo sapiens, 48 h, A549, HepG2 and MCF-7, 48 h, span or bound over the three lines, read-out: IC50 against all three tumor cell lines.
Description: as §1, §2

Setting [5] is: Homo sapiens, HepG2, MTT assay, 48 h of treatment, three independent experiments.
Where [6] appears, read: Homo sapiens, A549, MTT assay, 48 h of treatment, three independent experiments.
Where [7] appears, read: Homo sapiens, MCF7, MTT assay, 48 h of treatment, three independent experiments.
[8] abbreviates: MTT assay, 48 h of treatment, three independent experiments.

Data on twelve molecules can be found in PMC11396318, “Lupeol-3-carbamate Derivatives: Synthesis and Biological Evaluation as Potential Antitumor Agents” (Molecules, 2024).

Structures are written as SMILES. Like-named read-outs stand apart in the source and are kept apart here.

One may read the IC50 as the point on the concentration scale where inhibition reaches its midpoint.

With `C=C(C)[C@@H]1CC[C@]2(C)CC[C@]3(C)C(CCC4[C@@]5(C)CC[C@H](OC(=O)N(CC)CC)C(C)(C)C5CC[C@]43C)C12` (stereo partly drawn) [Compound 3b, Lupeol-3-(diethyl) Carbamate], the IC50 is 13.8 ± 1.23 µM in experiment [1] (Homo sapiens, HepG2, 48 h); 14 ± 1.25 µM in experiment [2] (Homo sapiens, A549, 48 h); 12.7 ± 1.43 µM in experiment [3] (Homo sapiens, MCF7, 48 h).
Consider `C=C(C)[C@@H]1CC[C@]2(C)CC[C@]3(C)C(CCC4[C@@]5(C)CC[C@H](OC(=O)N6CCCC6)C(C)(C)C5CC[C@]43C)C12` (stereo partly drawn) [Compound 3d, Lupeol-3-(pyrrolidine-1-carboxylate)], for which the values for the IC50 in experiment [1] (setting [5]), in experiment [2] (setting [6]) and in experiment [3] (setting [7]) were 17.7 ± 1.35 µM, 11.3 ± 1.14 µM and 12.4 ± 1.55 µM, respectively.
`C=C(C)[C@@H]1CC[C@]2(C)CC[C@]3(C)C(CCC4[C@@]5(C)CC[C@H](OC(=O)N(CCC)CCC)C(C)(C)C5CC[C@]43C)C12` (stereo partly drawn) [Compound 3c, Lupeol-3-(dipropyl) Carbamate]: the figures for the concentration for half-maximal inhibition (IC50) in experiment [1] (setting [5]), in experiment [2] (setting [6]) and in experiment [3] (setting [7]) were 5.39 ± 0.77 µM, 15.5 ± 1.2 µM and 15.3 ± 1.11 µM, respectively. Moreover, in experiment [4], the “anti-proliferative activity compared with lupeol” value is listed as “more potent than that of lupeol”.
Regarding `C=C(C)[C@@H]1CC[C@]2(C)CC[C@]3(C)C(CCC4[C@@]5(C)CC[C@H](OC(=O)N6CCOCC6)C(C)(C)C5CC[C@]43C)C12` (stereo partly drawn) [Compound 3f, Lupeol-3-(morpholine-1-carboxylate)], the IC50 in experiment [1] (setting [5]) is 10.8 ± 1.52 µM; in experiment [2] (setting [6]), 6.76 ± 0.96 µM; in experiment [3] (setting [7]), 11.3 ± 1.21 µM.
With `C=C(C)[C@@H]1CC[C@]2(C)CC[C@]3(C)[C@H](CC[C@@H]4[C@@]5(C)CC[C@H](O)C(C)(C)[C@@H]5CC[C@]43C)[C@@H]12` [Lupeol], the IC50 in experiment [1] (setting [5]) came out at 43.6 ± 1.37 µM; in experiment [2] (setting [6]), 35.9 ± 1.58 µM; in experiment [3] (setting [7]), 62 ± 1.79 µM.
In the case of `C=C(C)[C@@H]1CC[C@]2(C)CC[C@]3(C)C(CCC4[C@@]5(C)CC[C@H](OC(=O)N6CCN(C)CC6)C(C)(C)C5CC[C@]43C)C12` (stereo partly drawn) [Compound 3i, Lupeol-3-((4-methylpiperazine)-1-carboxylate)], the 50% inhibitory concentration (IC50) turned out to be 9.43 ± 1.21 µM in experiment [1] (setting [5]), 5.74 ± 0.83 µM in experiment [2] (setting [6]) and 8.2 ± 1.46 µM in experiment [3] (setting [7]).
With `C=C(C)[C@@H]1CC[C@]2(C)CC[C@]3(C)C(CCC4[C@@]5(C)CC[C@H](OC(=O)N6CCSCC6)C(C)(C)C5CC[C@]43C)C12` (stereo partly drawn) [Compound 3g, Lupeol-3-(thiomorpholine-1-carboxylate)], the IC50 in experiment [1] (setting [5]) was determined as 10.1 ± 1.78 µM; in experiment [2] (setting [6]) it was 8.19 ± 1.02 µM; in experiment [3] (setting [7]), 7.77 ± 1.09 µM.
For the molecule `C=C(C)[C@@H]1CC[C@]2(C)CC[C@]3(C)C(CCC4[C@@]5(C)CC[C@H](OC(=O)N(C)C)C(C)(C)C5CC[C@]43C)C12` (stereo partly drawn) [Compound 3a, Lupeol-3-(dimethyl) Carbamate], the concentration for half-maximal inhibition (IC50) is 11.1 ± 1.45 µM in experiment [1] (Homo sapiens, HepG2, 48 h); 14 ± 1.03 µM in experiment [2] (Homo sapiens, A549, 48 h); 10.2 ± 1.24 µM in experiment [3] (Homo sapiens, MCF7, 48 h).
Turning to `C=C(C)[C@@H]1CC[C@]2(C)CC[C@]3(C)C(CCC4[C@@]5(C)CC[C@H](OC(=O)N6CCCCC6)C(C)(C)C5CC[C@]43C)C12` (stereo partly drawn) [Compound 3e, Lupeol-3-(piperidine-1-carboxylate)], the IC50 in experiment [1] (setting [5]) is 6.91 ± 1.6 µM; in experiment [2] (setting [6]) it was 13.2 ± 1.56 µM; in experiment [3] (setting [7]) it was 14 ± 1.58 µM; in experiment [4] it was less than 20 µM. Moreover, the “anti-proliferative activity compared with lupeol” value in experiment [4] is on record as “more potent than that of lupeol”.
For `C=C(C)[C@@H]1CC[C@]2(C)CC[C@]3(C)C(CCC4[C@@]5(C)CC[C@H](OC(=O)N6CCNCC6)C(C)(C)C5CC[C@]43C)C12` (stereo partly drawn) [Compound 3h, Lupeol-3-(piperazine-1-carboxylate)], the 50% inhibitory concentration (IC50) in experiment [1] (setting [5]) was 11.2 ± 1.45 µM; in experiment [2] (setting [6]), 12 ± 1.47 µM; in experiment [3] (setting [7]) it was 9.78 ± 1.2 µM; in experiment [4] it was less than 20 µM.
In the case of `N.N.[Cl][Pt][Cl]` [Cisplatin, reference compound], the figures for the IC50 in experiment [1] (setting [8]), in experiment [2] (setting [8]) and in experiment [3] (setting [8]) were 4.05 ± 0.45 µM, 4.65 ± 0.52 µM and 5.27 ± 0.68 µM, respectively.
As to `C=C(C)C1CCC2(C)CCC3(C)C(CCC4C5(C)CCC(OC(=O)N6CCN(c7ccncc7)CC6)C(C)(C)C5CCC43C)C12` (stereo not drawn) [Compound 3k, Lupeol-3-((4-(pyridin-4-yl)piperazine)-1-carboxylate)], the IC50 is 14 ± 1.65 µM in experiment [1] (setting [5]), 12.1 ± 1.35 µM in experiment [2] (setting [6]), 19.9 ± 1.82 µM in experiment [3] (setting [7]) and less than 20 µM in experiment [4]. In addition, in experiment [4], the “anti-proliferative activity compared with lupeol” value is listed as “more potent than that of lupeol”.
